In patent US6703413B2 (Rhode Island Hospital, priority 1999, dated 2004):
Where two headings read alike, the source gives them in different places.

What was measured:
HCT-8 colon tumor cells = experiment: Cell growth inhibition, 3 d exposure, cell counting; type: cell-based, human
Method: (§1) One ml of this cell suspension was added to each well of a 12 well cell culture plate that contained 3 ml of appropriate media plus serum. […] Control wells received 40 μl of 5% Kollidon 17 PF alone. Seventy-two hours later, all cells were harvested by trypsinization and cell number determined electronically using a Coulter Model Z1 particle counter (Coulter Corp., Miami, Fla.) to assess cell growth inhibition. Each experiment was performed in duplicate and repeated a minimum of three times.
(§2) Cells were seeded at a density of 1-5×10^4 cells in each well of a 6 well tissue culture flask. […] After three days, cells were harvested by trypsinization and cell number determined electronically. Cell growth inhibition was determined by comparison to non-Taurolidine exposed control cultures. The IC50 was calculated as the concentration required to inhibit cell number by 50%.

HCT-15 colon tumor cells = experiment: as above; type: cell-based, human
Method: as §1, §2

[1] = tested on: DU-145 prostate tumor cells; experiment: as above; type: cell-based, human
Method: as §1, §2

H-596 lung tumor cells = experiment: as above; type: cell-based, human
Method: as §1, §2

[2] = tested on: PA-1 human ovarian tumor cells; experiment: Cell cycle distribution and sub-G0/G1 DNA debris, flow cytometry; type: cell-based; settings: for Cell Cycle Distribution, G0G1 / Cell Cycle Distribution, G2/M / Cell Cycle Distribution, S: PA1, 48 h
Method: (§3) Three×10^5 cells were seeded in plastic tissue culture flasks. […] Control cultures received an appropriate volume of Kollidine-17P. […] The percentage of DNA debris in the sub-G0/G1 region was assessed using cytofluorometric techniques. Each bar represents the mean (±SE) of three determinations. ** p≦0.01, *** p≦0.001, **** p≦0.0001
(§4) For flow cytometry studies, 1×10^6 PA-1, SKOV-3, or NIH-3T3 cells were incubated for 24 h in appropriate media containing serum. […] Control cultures for each cell line were incubated in media containing 40 μl of 5% Kollidon 17 PF alone. Forty-eight hours later, all cells were harvested by trypsinization and prepared for cytofluorometric analysis by standard methods. For example, harvested cells were resuspended in ice cold phosphate-buffered saline at a final cell density of 2×10^6 cells/ml. The cells then were stained for 30 min at room temperature in the dark with a solution of 0.05 mg/ml propidium iodide, 0.6% Igepal, and 1% sodium citrate. Flow cytometry was performed by FACScan (Becton Dickinson, Plymouth, England) using the ModFit LT program (Becton Dickinson). Statistical analysis was performed with the Kruskal Wallis non-parametric ANOVA test followed by Dunn's multiple comparisons test using Instat.
(§5) Three×10^5 cells were seeded in plastic tissue culture flasks. […] Control cultures received an appropriate volume of Kollidine-17P. After an additional 48 h, cells were harvested, stained with propidium iodide, and cell cycle distribution assessed using cytofluorometric techniques. Each value represents the percentage of cells in the noted cell cycle phases and is the mean±SEM of three determinations.

[3] = tested on: NIH-3T3 murine fibroblasts; experiment: as above; type: cell-based; settings: NIH-3T3, 48 h
Method: as §3, §4, §5

[4] = tested on: SKOV-3 human ovarian tumor cells; experiment: as above; type: cell-based; settings: for Cell Cycle Distribution, G0G1 / Cell Cycle Distribution, G2/M / Cell Cycle Distribution, S: SKOV3, 48 h
Method: as §3, §4, §5

[5] = tested on: human ovarian tumor cells; experiment: Growth of established tumor cell colonies in vitro; type: cell-based; settings: 24-hour exposure to 50 μM
Method: Parallel studies were carried out to assess whether disruption of cell adhesion played a role in the cytotoxic activity.

3T3 cells = experiment: DNA fragmentation, agarose-gel electrophoresis; type: cell-based; settings: identical regimen, 50 μM
A-549 lung tumor cells = experiment: Cell growth inhibition, 3 d exposure, cell counting; type: cell-based; settings: Homo sapiens, A549, 72 h
Method: as §1, §2

[6] = tested on: PA-1 human ovarian tumor cells; experiment: as above; type: cell-based; settings: PA-1 (ovary)
Method: as §1, §2

[7] = tested on: NIH-3T3 murine fibroblasts; experiment: as above; type: cell-based
Method: as §1, §2

MNT-1 melanoma cells = experiment: as above; type: cell-based; settings: Homo sapiens, 72 h
Method: as §1, §2

HT-29 colon tumor cells = experiment: as above; type: cell-based; settings: Homo sapiens, 72 h
Method: as §1, §2

[8] = tested on: SKOV-3 human ovarian tumor cells; experiment: as above; type: cell-based; settings: SK-OV-3, 72 h, SKOV-3 (ovary)
Method: as §1, §2

H-157 lung tumor cells = experiment: as above; type: cell-based; settings: Homo sapiens, NCI-H157, 72 h
Method: as §1, §2

U-251 glioma cells = experiment: as above; type: cell-based; settings: Homo sapiens, 72 h, U-251 (brain)
Method: as §1, §2

Compound: O=S1(=O)CCN(CN2CCS(=O)(=O)NC2)CN1 [Taurolidine, Bis-(1,1-dioxoperhydro-1,2,4-thiadiazinyl-4)methane]
- IC50 (HCT-8 colon tumor cells): 11.5 ± 0.5 µM
- IC50 (HCT-8 colon tumor cells; Homo sapiens, HCT-8, 72 h): ~10 µM
- IC50 (HCT-15 colon tumor cells): 9.6 ± 3 µM
- IC50 (HCT-15 colon tumor cells; Homo sapiens, HCT-15, 72 h): ~10 µM
- IC50 [1]: 9.8 ± 0.8 µM
- IC50 ([1]; Homo sapiens, DU-145, 72 h): ~10 µM
- IC50 (H-596 lung tumor cells): 34.2 µM
- IC50 (H-596 lung tumor cells; Homo sapiens, NCI-H596, 72 h): ~35 µM
- Cell Cycle Distribution, G0G1 ([2]; 25 μM): 28.4 ± 0.5%
- Cell Cycle Distribution, G2/M ([2]; 25 μM): 24.7 ± 0.9%
- Cell Cycle Distribution, S ([2]; 25 μM): 46.8 ± 0.6%
- Cell Cycle Distribution, G0G1 ([2]; 50 μM): 23.7 ± 2.2%
- Cell Cycle Distribution, G0G1 ([2]; 100 μM): 28.4 ± 5.6%
- Cell Cycle Distribution, G2/M ([2]; 100 μM): 27.2 ± 17.9%
- Cell Cycle Distribution, S ([2]; 100 μM): 44.5 ± 23.5%
- DNA debris in the sub-G0/G1 region ([2]; PA-1, 48 h, 25-100 μM): appearance of DNA debris in the sub-G0G1 region
- Cell Cycle Distribution, G0G1 ([3]; 25 μM): 42.5 ± 9.6%
- Cell Cycle Distribution, G2/M ([3]; 25 μM): 13.0 ± 4.0%
- Cell Cycle Distribution, S ([3]; 25 μM): 44.9 ± 5.6%
- Cell Cycle Distribution, G0G1 ([3]; 50 μM): 33.9 ± 10.2%
- Cell Cycle Distribution, G2/M ([3]; 50 μM): 21.8 ± 4.6%
- Cell Cycle Distribution, S ([3]; 50 μM): 44.3 ± 5.9%
- Cell Cycle Distribution, G0G1 ([3]; 100 μM): 25.8 ± 1.7%
- Cell Cycle Distribution, G2/M ([3]; 100 μM): 11.0 ± 11.0%
- Cell Cycle Distribution, S ([3]; 100 μM): 63.2 ± 9.8%
- DNA debris in the sub-G0/G1 region ([3]; 25-100 μM): did not significantly affect the appearance of DNA debris
- Cell Cycle Distribution, G0G1 ([4]; 25 μM): 45.8 ± 2.7%
- Cell Cycle Distribution, G2/M ([4]; 25 μM): 12.3 ± 3.1%
- Cell Cycle Distribution, S ([4]; 25 μM): 41.9 ± 4.2%
- Cell Cycle Distribution, G0G1 ([4]; 50 μM): 30.7 ± 9.4%
- Cell Cycle Distribution, G2/M ([4]; 50 μM): 30.3 ± 10.5%
- Cell Cycle Distribution, S ([4]; 50 μM): 45.5 ± 12.4%
- Cell Cycle Distribution, G0G1 ([4]; 100 μM): 19.9 ± 6.1%
- Cell Cycle Distribution, G2/M ([4]; 100 μM): 25.9 ± 7.8%
- Cell Cycle Distribution, S ([4]; 100 μM): 54.2 ± 8.6%
- DNA debris in the sub-G0/G1 region ([4]; SKOV-3, 48 h, 25-100 μM): appearance of DNA debris in the sub-G0G1 region
- cytotoxic effect against growth of established tumor cells [5]: significant cytotoxic effect
- DNA fragmentation (3T3 cells): not apparent
- IC50 (A-549 lung tumor cells): 26.8 ± 7.2 µM
- IC50 ([6]; Homo sapiens, 72 h): ~10 µM
- IC50 [6]: 11.4 ± 1.8 µM
- IC50 [7]: 11.9 ± 1.8 µM
- IC50 ([7]; Mus musculus, NIH3T3, 72 h): ~10 µM
- IC50 (MNT-1 melanoma cells): 22.1 ± 2.1 µM
- IC50 (HT-29 colon tumor cells): 18.6 ± 1 µM
- IC50 [8]: 31.6 ± 7 µM
- IC50 (H-157 lung tumor cells): 32.2 ± 5.6 µM
- IC50 (U-251 glioma cells): 20.1 ± 2.7 µM
